{"source": "patent US9340517B2", "about": "“Methods of modulating the activity of the MC5 receptor and treatment of conditions related to this receptor” (Mimetica PTY LTD, priority 2008, dated 2016)", "data": [{"system": "not given", "assay": "not given", "settings": "oral, after 8-12 weeks of therapy; cited from earlier work", "values": [{"smiles": "CC1=C(/C=C/C(C)=C/C=C/C(C)=C\\C(=O)O)C(C)(C)CCC1", "note": "[isotretinoin, 13-cis-retinoic acid]", "reduction of sebum excretion": "up to 90%"}]}, {"system": "not given", "assay": "not given", "settings": "oral, by 2 weeks; cited from earlier work", "values": [{"smiles": "CC1=C(/C=C/C(C)=C/C=C/C(C)=C\\C(=O)O)C(C)(C)CCC1", "note": "[isotretinoin, 13-cis-retinoic acid]", "reduction of sebum excretion": "60-70%"}]}, {"target": "human MC5R (Homo sapiens (Human), UniProt P33032)", "sequence (P33032 whole entry)": "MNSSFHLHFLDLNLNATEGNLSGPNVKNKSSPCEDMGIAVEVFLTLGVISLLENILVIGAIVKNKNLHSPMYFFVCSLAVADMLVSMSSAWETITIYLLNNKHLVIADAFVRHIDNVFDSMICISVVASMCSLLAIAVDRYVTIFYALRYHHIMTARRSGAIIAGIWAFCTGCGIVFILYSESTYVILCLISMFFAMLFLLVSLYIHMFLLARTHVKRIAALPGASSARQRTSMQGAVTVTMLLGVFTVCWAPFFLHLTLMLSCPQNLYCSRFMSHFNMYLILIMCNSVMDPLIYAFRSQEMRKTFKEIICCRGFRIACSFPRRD", "assay": "Human MC5R radioligand binding assay ([125I] NDP-MSH displacement, membranes)", "settings": "not given", "experimental": "(§1) Assessments of compound binding to human MC5R (hMC5R)) by displacement of an ^125I-labeled NDP-MSH receptor ligand peptide were performed essentially as described in the data sheets produced by Perkin Elmer to accompany their frozen hMC5R membranes (Perkin Elmer catalog number RBXMC5M400UA).\n(§2) Na^125I (0.5 mCi, 17.4 Ci/mg) was added to 50 μL sodium phosphate (50 mM, pH 7.4) in an eppendorf tube precoated with IODOGEN. After incubation for 10 mins the phosphate buffer containing the iodine was added to NDP-MSH (10 ul at 1 mg/mL) in a separate eppendorf tube. This was incubated for a further 10 mins. The iodinated NDP-MSH was purified by HPLC on a Zorbax SB 300 column using solvent A: 0.05% TFA and solvent B: 90% acetonitrile 0.045% TFA with a linear gradient, 0-67% B over 60 mins.\n(§3) Perkin Elmer frozen hMC5 membranes: catalog number RBXMC5M400UA, 0.4 mL/vial; 400 microassays/vial, 0.78 mg/mL protein concentration\n(§4) Vials of frozen membranes were thawed rapidly immediately before use, diluted with binding buffer and vortexed. Resuspended membranes were kept on ice until they were added to the wells of the plate.\n(§5) Assays were performed in 96 well polypropylene plates. […] This was incubated for 1 hr at 37° C.", "units": {"IC50": "nM"}, "values": [{"smiles": "O=C(NCC1CCN(CC(c2ccccc2)c2ccccc2)C(=O)C(C2CCNCC2)N1)c1ccc2ccccc2c1", "note": "(racemic) [Compound 197, N-((1-(2,2-diphenylethyl)-2-oxo-3-(piperidin-4-yl)-1,4-diazepan-5-yl)methyl)-2-naphthamide]", "IC50": "< 1000"}, {"smiles": "O=C(NCC1CCN(CC(c2ccccc2)c2ccccc2)C(=O)C(CC2CCNCC2)N1)c1ccc2ccccc2c1", "note": "(racemic) [Compound 198, N-((1-(2,2-diphenylethyl)-2-oxo-3-(piperidin-4-ylmethyl)-1,4-diazepan-5-yl)methyl)-2-naphthamide]", "IC50": "< 1000"}, {"smiles": "CC[C@H](CN1CC[C@@H](CNC(=O)Cc2ccc(Cl)cc2Cl)N[C@@H](CCN2CCCCC2)C1=O)c1ccccc1", "note": "[Compound 540, 2-(2,4-dichlorophenyl)-N-(((3S,5S)-2-oxo-1-((S)-2-phenylbutyl)-3-(2-(piperidin-1-yl)ethyl)-1,4-diazepan-5-yl)methyl)acetamide]", "IC50": "< 1000"}, {"smiles": "CC[C@H](CN1CC[C@@H](CNC(=O)c2ccc3cc(Cl)ccc3c2)N[C@H](CCN2CCCCC2)C1=O)c1ccccc1", "note": "[Compound 582, 6-chloro-N-(((3R,5S)-2-oxo-1-((S)-2-phenylbutyl)-3-(2-(piperidin-1-yl)ethyl)-1,4-diazepan-5-yl)methyl)-2-naphthamide]", "IC50": "< 100"}, {"smiles": "CC[C@@H](CN1CC[C@@H](CNC(=O)c2ccc3cc(Cl)ccc3c2)N[C@H](CCN2CCCCC2)C1=O)c1ccccc1", "note": "[Compound 584, 6-chloro-N-(((3R,5S)-2-oxo-1-((R)-2-phenylbutyl)-3-(2-(piperidin-1-yl)ethyl)-1,4-diazepan-5-yl)methyl)-2-naphthamide]", "IC50": "< 1000"}]}, {"target": "human MC5R (Homo sapiens (Human), UniProt P33032)", "assay": "Human MC5R radioligand binding assay ([125I] NDP-MSH displacement, membranes)", "settings": "hMC5R binding assay as in Example 102; compounds tested as trifluoroacetate or hydrochloride salts, or as free base", "experimental": "as §1, §2, §3, §4, §5", "units": {"IC50": "nM"}, "values": [{"smiles": "N=C(N)NCCC[C@@H]1N[C@H](CNC(=O)/C=C/c2ccccc2)CCN(CC(c2ccccc2)c2ccccc2)C1=O", "note": "[Compound 153, N-(((3S,5S)-1-(2,2-diphenylethyl)-3-(3-guanidinopropyl)-2-oxo-1,4-diazepan-5-yl)methyl)cinnamamide]", "IC50": "< 100"}, {"smiles": "NCCC[C@@H]1N[C@H](CNC(=O)/C=C/c2ccccc2)CCN(CC(c2ccccc2)c2ccccc2)C1=O", "note": "[Compound 213, N-(((3S,5S)-3-(3-aminopropyl)-1-(2,2-diphenylethyl)-2-oxo-1,4-diazepan-5-yl)methyl)cinnamamide]", "IC50": "< 1000"}, {"smiles": "O=C(/C=C/c1ccccc1)NC[C@@H]1CCN(CC(c2ccccc2)c2ccccc2)C(=O)[C@H](CCCN2CCCCC2)N1", "note": "[Compound 269, N-(((3S,5S)-1-(2,2-diphenylethyl)-2-oxo-3-(3-(piperidin-1-yl)propyl)-1,4-diazepan-5-yl)methyl)cinnamamide]", "IC50": "< 100"}, {"smiles": "NCC[C@@H]1N[C@H](CNC(=O)/C=C/c2ccccc2)CCN(CC(c2ccccc2)c2ccccc2)C1=O", "note": "[Compound 282, N-(((3S,5S)-3-(2-aminoethyl)-1-(2,2-diphenylethyl)-2-oxo-1,4-diazepan-5-yl)methyl)cinnamamide]", "IC50": "< 1000"}, {"smiles": "Nc1ccccc1C[C@H]1C(=O)N(CC(c2ccccc2)c2ccccc2)CC[C@H]2CN(C(=O)/C=C/c3ccc(Cl)cc3)CN21", "note": "[Compound 453, (5S,9aS)-5-((2-aminobenzyl)-2-(E)-3-(4-chlorophenyl)acryloyl)-7-(2,2-diphenylethyl)hexahydro-1H-imidazo[1,5-d][1,4]diazepin-6(5H)-one]", "IC50": "< 1000"}]}, {"target": "human MC5R (Homo sapiens (Human), UniProt P33032)", "assay": "Human MC5R radioligand binding assay ([125I] NDP-MSH displacement, membranes)", "settings": "hMC5R binding assay as in Example 102; compounds tested as trifluoroacetate or hydrochloride salts, or free base", "experimental": "as §1, §2, §3, §4, §5", "units": {"IC50": "nM"}, "values": [{"smiles": "O=C(NC[C@@H]1CCN(Cc2cc(Cl)cc(Cl)c2)C(=O)[C@H](CCN2CCOCC2)N1)c1ccc2cc(Cl)ccc2c1", "note": "[Compound 555]", "IC50": "< 100"}, {"smiles": "O=C(NC[C@@H]1CCN(Cc2cc(Cl)cc(Cl)c2)C(=O)[C@H](CCN2CCOCC2)N1)c1ccc(Cl)c(Cl)c1", "note": "[Compound 556]", "IC50": "< 100"}, {"smiles": "COc1ccc2cc(C(=O)NC[C@@H]3CCN(Cc4cc(Cl)cc(Cl)c4)C(=O)[C@H](CCN4CCCCC4)N3)ccc2c1", "note": "[Compound 568]", "IC50": "< 100"}]}]}
